# Experimental data as given in patent US20240382610A1 (priority 2021, published 2024).
# Tests used:
# [1] = system: CD19+ B cells; assay: Free CpG activity on CD40 expression by CD19+ B cells in human PBMCs; type: cell-based; settings: PBMC from three donors (D559, D804, D643)
# Experimental: Trima residuals were received from Vitalant and diluted 1:2 with Phosphate Buffered Saline (PBS, Gibco). Diluted blood was split into two tubes and underplayed with 15 mL Ficoll-Paque (GE Healthcare). Tubes were centrifuged for 30 minutes at 400×g. PBMCs were collected from the interface, resuspended and washed in FACS buffer (PBS with 0.5% Bovine Serum Albumin (Gibco)). After one wash, PBMCs were resuspended in Complete RPMI (RPMI+10% FBS).
# PBMCs were immediately plated onto a 96-well format (500K/well) in Complete RPMI. Five-fold serial dilutions were added to the cells from 1 uM to […] of CpG oligonucleotides at 37° C. under 5% CO2 for 48 hours. Cells were pelleted by centrifugation for five minutes at 400×g and stained at 4° C. in Fixable Viability Dye eFluor 780 (Thermo Fisher) diluted 1:4000 in PBS. Cells were centrifuged and stained at 4° C. in FACS buffer for 30 minutes containing FcR Blocking Reagent (Miltenyi Biotec), anti-CD19, anti-CD20, anti-CD40, anti-HLADR and anti-CD80. Cells were centrifuged and washed twice in FACS buffer and fixed in 0.5% paraformaldehyde. Cells were analyzed on Attune NxT Flow Cytometer (Thermo Fisher), with subsequent data analysis by Flowjo 10.7 (Treestar). Dead cells were excluded by gating on the eFluor 780-negative population. B cells were identified as CD19^+CD20^+cells and level of activation marker was assessed by median fluorescent intensity. […]
# [2] = system: Ramos-Blue Cells NF-kB/AP-1 Reporter B lymphocytes; assay: Ramos NFkb Reporter Assay; type: cell-based; settings: 24 h stimulation, OD655
# [3] = system: DLD-1 nectin-4 tumor cells; type: cell-based, human
substance,measurement,setting,value
"CpG 7-7: ""CpG 7-7 (7-7b; SEQ ID NO:35)"", free CpG oligonucleotide of series 7 (DNA NCGTCGTGTCGTTT; modified_base 1 OTHER; 5-Bromo-2'-deoxyuridine; modified_base 1..4 OTHER; phosphorothioate linkages; modified_base 4..5 OTHER; phosphotriester linker-PEG24-NH2; modified_base 5..9 OTHER; modified_base 9..10 OTHER; phosphorodithioate linkage; modified_base 10..14 OTHER; modified_base 13..14 OTHER; 2'-O-methyl-thymidine; misc_feature 14 3' spacer)",activity as observed by CD40 expression,[1],higher activities
same,activity in NFkb reporter assay,[2],significantly higher activity
same,phagocytosis of DLD-1 nectin-4 tumor cells by macrophages,[3],did not appear to result in detectable phagocytosis
